Laboratory results published in patent US4757069A, “Pyridazodiazepine derivatives” (Hoffmann-La Roche Inc., priority 1986, dated 1988).
Counter-ions that a name gives are not always drawn.

Molecular target: T1, Angiotensin converting enzyme (rabbit lung) (Oryctolagus cuniculus, UniProt P12822)
T1 construct: Angiotensin converting enzyme (rabbit lung); from tissue; host or cells: rabbit lung
T1 sequence (P12822 34-1310): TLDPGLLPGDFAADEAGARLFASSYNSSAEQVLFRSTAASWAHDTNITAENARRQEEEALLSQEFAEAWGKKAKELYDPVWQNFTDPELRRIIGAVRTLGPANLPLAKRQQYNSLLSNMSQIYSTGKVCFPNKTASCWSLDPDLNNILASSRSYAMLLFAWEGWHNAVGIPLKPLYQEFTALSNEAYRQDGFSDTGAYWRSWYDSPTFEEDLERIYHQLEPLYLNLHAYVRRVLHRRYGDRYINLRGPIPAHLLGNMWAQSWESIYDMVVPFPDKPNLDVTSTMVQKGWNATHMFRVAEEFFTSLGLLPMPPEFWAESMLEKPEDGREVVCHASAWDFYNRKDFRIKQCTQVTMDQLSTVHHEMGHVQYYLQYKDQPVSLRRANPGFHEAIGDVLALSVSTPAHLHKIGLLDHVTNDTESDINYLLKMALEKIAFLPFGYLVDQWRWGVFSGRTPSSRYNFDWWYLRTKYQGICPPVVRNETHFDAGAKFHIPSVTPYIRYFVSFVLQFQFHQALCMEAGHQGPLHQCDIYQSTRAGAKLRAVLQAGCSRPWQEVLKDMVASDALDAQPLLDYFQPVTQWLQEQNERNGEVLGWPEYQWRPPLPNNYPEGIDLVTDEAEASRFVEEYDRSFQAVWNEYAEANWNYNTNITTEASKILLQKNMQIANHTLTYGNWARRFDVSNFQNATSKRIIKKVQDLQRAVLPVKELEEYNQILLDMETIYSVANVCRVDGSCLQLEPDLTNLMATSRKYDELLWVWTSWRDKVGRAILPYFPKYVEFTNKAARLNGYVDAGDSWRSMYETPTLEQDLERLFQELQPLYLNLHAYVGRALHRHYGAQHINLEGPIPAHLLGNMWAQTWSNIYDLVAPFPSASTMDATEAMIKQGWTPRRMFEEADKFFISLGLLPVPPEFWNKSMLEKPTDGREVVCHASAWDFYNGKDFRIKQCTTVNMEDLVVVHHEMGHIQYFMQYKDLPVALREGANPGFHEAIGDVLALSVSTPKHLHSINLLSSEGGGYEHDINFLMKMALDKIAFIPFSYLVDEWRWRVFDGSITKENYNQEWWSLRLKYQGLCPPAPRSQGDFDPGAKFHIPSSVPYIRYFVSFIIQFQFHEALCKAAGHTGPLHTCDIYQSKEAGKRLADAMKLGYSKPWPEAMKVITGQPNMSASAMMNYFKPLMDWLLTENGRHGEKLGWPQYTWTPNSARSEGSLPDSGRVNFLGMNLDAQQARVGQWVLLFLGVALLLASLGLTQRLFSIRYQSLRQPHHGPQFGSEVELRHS
Assay: Inhibition of angiotensin-converting enzyme in vitro (conversion of angiotensin I into angiotensin II, fluorescence)
Type: biochemical
Conditions: rabbit lung ACE; 90 min preincubation at 37° C., pH 7.5; angiotensin I 250 μmol; 30 min reaction; read-out: IC50 (concentration of test substance which reduces by 50% the conversion of angiotensin I into angiotensin II)
Procedure: The activity of the present pyridazodiazepine derivatives in inhibiting angiotensin-converting enzyme in vitro can be determined using the test now described.
The method used is based on the method of Santos, R. A. S., Kreiger, E. M., and Greene L. J., Hypertension (1985), 7, 244-252. Angiotensin converting enzyme (rabbit lung) is incubated in the presence or absence of various concentrations of a test substance for 90 minutes at 37° C. in 0.1M potassium phosphate buffer, pH 7.5, containing 30 mmol of sodium chloride. If the test substance is an ester, it is cleaved by treatment with hog liver esterase prior to carrying out the test. The reaction is initiated by adding angiotensin I to a final concentration of 250 μmol. The final volume of the reaction mixture is 0.25 ml. After holding the reaction mixture at 37° C. for 30 minutes the reaction is terminated by adding 1.45 ml of 0.3M sodium hydroxide solution. […] of a 0.2% (weight/volume) solution of o-phthaldialdehyde in methanol are added and, after 10 minutes, the solution is acidified with 200 μl of 3M hydrochloric acid. The resulting solution is then subjected to fluorescence spectrometry using excitation and emission wavelengths of 365 nm and 500 nm, respectively, and the IC50 value is calculated. The IC50 is that concentration of test substance which reduces by 50% the conversion of angiotensin I into angiotensin II.

With N=C(N)Nc1ccc(CC[C@H](N[C@H]2CCCN3CCC[C@@H](C(=O)O)N3C2=O)C(=O)O)cc1 [Example 1, 9(S)-[1(S)-carboxy-3-(4-guanidinophenyl)propylamino]-octahydro-10-oxo-6H-pyridazo[1,2-a][1,2]diazepine-1(S)-carboxylic acid dihydrobromide] the IC50 was 600 pM.
